Results taken from patent US7943775B2, “Small molecules for imaging protein-protein interactions” (The United States of America as represented by the …, priority 2006, dated 2011).

Assays:
Biotin-labeled amyloid-β [1] = target: T1, Biotin-labeled amyloid-β (Homo sapiens, UniProt P05067); experiment: Dose response assay, plate-coated test compounds at 6 concentrations vs biotin-labeled amyloid β; assay type: binding; settings: biotin-labeled amyloid at 1 μM; compounds coated at 6 concentrations
Experimental: Step 1. Coating the plate. The four compounds 3a, 3b, 3c, and 3d were diluted to 6 different concentrations in the same coating buffer used in the ELISA. The resulting solutions were applied to individual wells of a 96-well polystyrene microtiter plate at 100 μL/well. The plate was then sealed and allowed to incubate at 4° C. for at least 8 hours.
Step 2. Washing the plate. The sample solutions were then removed and the plate was washed twice with 300 μL/well of the same washing solution used in the ELISA.
Step 3. Blocking. The blocking buffer used in the ELISA was added at a volume of 150 μL/well, and the plate was incubated at room temperature for 2 hours.
Step 4. Sampling. The blocking buffer was removed and biotin-labeled amyloid P was added to each well at a concentration of 1 μM in the same binding buffer used in the ELISA. The solution in each well was then mixed by being drawn into and ejected from a pipette 15 times. The plate was then gently agitated for further mixing. After mixing, the plate was covered and incubated at room temperature overnight.
Step 5. Washing. The solution in each well was discarded and the plate was washed three times with 170 μL/well of the washing solution described above.
Step 6. Binding with avidin-HRP and substrate. NeutrAvidinHRP solution was added to each well at 0.01 μg/well. The wells were then covered and incubated at room temperature for 30 minutes. The solution in each well was discarded and the plate was washed 3 times with the above-referenced washing solution at 170 μL/well of washing solution. The chemiluminescent substrate solution of the ELISA was then added at 100 μL/well, and luminescence was read using the Wallac Victor 1420 Multilabel Counter.
Step 7. Reading and calculations. Values for average luminescence vs. concentration were developed in the same manner as in the ELISA. From these values were determined EC50 values for each of the four test compounds as β-amyloid-binding portion candidates.

Biotin-labeled amyloid-β [2] = target: T1, Biotin-labeled amyloid-β; experiment: ELISA assay, binding of biotin-labeled amyloid-β to plate-coated test compounds; settings: compound coated at 1 μM
Experimental: Step 1. Sample Solution Preparations. For each test compound, four samples and two standard solutions using Thioflavin-T as the standard were prepared in a coating buffer, each to a final concentration of 1 μM. The coating buffer was 50 mM Tris (Trizma Base from Sigma Aldrich, Inc., St. […] Step 2. Coating the Plate. The sample solutions were applied to individual wells of a 96-well polystyrene microtiter plate at 100 μL/well. The plates were sealed and allowed to incubate at 4° C. for at least 8 hours. Step 3. Washing the Plate. The sample solutions were removed and the plate was washed two times with 300 μL/well of washing solution, which consisted of a 1 to 25 dilution in water of DELFIA® Wash Concentrate (PerkinElmer Life Sciences, Inc., Boston, Mass., USA). Step 4. Blocking. Blocking was achieved by adding 150 μL/well of a blocking buffer which consisted of a 1 to 20 dilution in water of Milk Diluent/Blocking Solution Concentrate (from KPL, Inc., Gaithersburg, Md., USA). The plate was then incubated at room temperature for 2 hours. Step 5. Sampling. Biotin-labeled amyloid-β was dissolved in a binding buffer to form a 1 μM solution of the amyloid-β. The binding buffer was a mixture of a coating buffer with the blocking buffer of Step 4 in a 90:10 ratio by volume. […] The dilutions were performed in quadruplicate, thus resulting in four sets of wells for each test compound. Step 6. Mixing. The solution in each well was mixed by being drawn into and ejected from a pipette 15 times. The plate was then gently agitated for further mixing. The plate was then covered and incubated at room temperature overnight. Step 7. Washing. The solution in each well was discarded and the plate was washed three times with 170 μL/well of the washing solution described above. Step 8. Binding with avidin-HRP. NeutrAvidinHRP solution was added to each well at 0.01 μg/well. The wells were then covered and incubated at room temperature for 30 minutes. Step 9. Substrate addition. The solution in each well was discarded and the plate was washed 3 times with the above-referenced washing solution at 170 μL/well of washing solution. A chemiluminescent substrate solution which was a mixture of equal volumes of LumiGLO Substrate A and LumiGLO Substrate B from KPL, Inc., was then added at 100 μL/well. Step 10. Fluorescence measurement and calculations. Luminescence was read on a Wallac Victor 1420 Multilabel Reader (PerkinElmer Life Sciences, Inc., Boston, Mass., USA). […] Average luminescence concentrations in counts per second (CPS) for each of the four β-amyloid-binding portion candidates at each dilution of the biotin-labeled β-amyloid are shown in Table I below.

FKBP12 = target: T2, FKBP12 (Homo sapiens, UniProt P62942); experiment: ELISA screening of candidates for the chaperone binding portion (FKBP12); settings: for Average Luminescence Concentration (CPS): compound coated at 1 μM; for binding affinity to chaperone FKBP12, in words: comparison of the four isomers
T2 construct: His (6xHis); made in house; host or cells: E. coli BL21-AI
T2 sequence (P62942 whole entry): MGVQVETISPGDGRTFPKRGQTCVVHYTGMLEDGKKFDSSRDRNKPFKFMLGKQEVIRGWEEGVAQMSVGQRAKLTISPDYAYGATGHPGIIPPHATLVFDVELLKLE
Experimental: The following four compounds, synthesized as described in, or in a manner analogous to the description in, Example 3, were tested for their suitability as candidates for the chaperone binding portion of the construct of this invention. The chaperone to which binding was evaluated was FKBP12 and, screening was performed by ELISA.
Step 1. Sample Solutions. Four samples of each of the test compounds were prepared by dissolving the compounds in the coating buffer described in Example 2 to a final concentration of 1 μM.
Step 2. Coating the Plate. The wells of a 96-well microtiter plate were coated with the sample solutions at 100 μL/well. The plates were then sealed and allowed to incubate at 4° C. for at least 8 hours.
Step 3. Washing the Plate. The coating solution was removed from the wells and the plate was washed two times with the washing solution of Example 2 at 300 μL/well.
Step 4. Blocking. The blocking buffer used in Example 2 was added at a volume of 150 μL/well, and the plate was incubated at room temperature for 2 hours.
Step 5. Sampling. Biotin-labeled FKBP12 was dissolved in a binding buffer to form a 1 μM solution. The binding buffer was a mixture of a coating buffer with the blocking buffer of Step 4 in a 90:10 ratio by volume. The coating buffer consisted of 50 mM Tris (Trizma Base from Sigma-Aldrich), 150 mM NaCl, 1 mM CaCl2, 1mM MgCl2, 1 mM MnCl2, pH=7.4 in redistilled water. Once blocking had been completed in Step 4, the blocking buffer was removed from each well, and the biotin-labeled […] solution was placed in one of the wells for each of the four test compounds, together with additional blocking buffer for a total volume of 125 μL in the well. Dilutions were then prepared to achieve final concentrations per well of […]. The dilutions were performed in quadruplicate, thus resulting in four sets of wells for each test compound. The procedures used for cloning, expression, and purification of FKBP12 are provided at the end of this example.
Step 6. Mixing. The solution in each well was mixed by being drawn into and ejected from a pipette 15 times. The plate was then gently agitated to achieve thorough mixing. After mixing, the plate was covered and incubated at room temperature overnight.
Step 7. Washing. The solution in each well was discarded and the plate was washed three times with 170 μL/well of the washing solution of Example 2.
Step 8. Binding with avidin-HRP. NeutrAvidinHRP solution was added to each well at 0.01 μg (100 μL)/well. The wells were then covered and incubated at room temperature for 30 minutes.
Step 9. Substrate addition. The solution in each well was discarded and the plate was washed 3 times with the above-referenced washing solution at 170 μL/well of washing solution. A chemiluminescent substrate solution was then added at 100 μL/well.
Step 10. Fluorescence measurement and calculations.

[3] = β-Amyloid Dilution 10 (μL/well)
[4] = β-Amyloid Dilution 20 (μL/well)
[5] = β-Amyloid Dilution 30 (μL/well)
[6] = β-Amyloid Dilution 40 (μL/well)
[7] = Concentration 1 (μM/well) biotin-labeled FKBP12
[8] = Concentration 5 (μM/well) biotin-labeled FKBP12
[9] = Concentration 10 (μM/well) biotin-labeled FKBP12
[10] = Concentration 20 (μM/well) biotin-labeled FKBP12
[11] = Concentration 30 (μM/well) biotin-labeled FKBP12
[12] = Concentration 40 (μM/well) biotin-labeled FKBP12

T1 sequence (P05067 672-711 limits assumed): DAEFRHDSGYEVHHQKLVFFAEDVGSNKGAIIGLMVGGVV

Average Luminescence Concentration (CPS) (FKBP12; [7])	Average Luminescence Concentration (CPS) (FKBP12; [8])	Average Luminescence Concentration (CPS) (FKBP12; [9])	Average Luminescence Concentration (CPS) (FKBP12; [10])	Average Luminescence Concentration (CPS) (FKBP12; [11])	Average Luminescence Concentration (CPS) (FKBP12; [12])	binding affinity to chaperone FKBP12, in words (FKBP12)	Compound	EC50 (Biotin-labeled amyloid-β [1]) [µM]	Average Luminescence Concentration (CPS) (Biotin-labeled amyloid-β [2]; β-Amyloid Dilution 1 (μL/well))	Average Luminescence Concentration (CPS) (Biotin-labeled amyloid-β [2]; β-Amyloid Dilution 5 (μL/well))	Average Luminescence Concentration (CPS) (Biotin-labeled amyloid-β [2]; [3])	Average Luminescence Concentration (CPS) (Biotin-labeled amyloid-β [2]; [4])	Average Luminescence Concentration (CPS) (Biotin-labeled amyloid-β [2]; [5])	Average Luminescence Concentration (CPS) (Biotin-labeled amyloid-β [2]; [6])
–	–	–	–	–	–	–	NCCCCCNC(=O)c1ccccc1Nc1cccc(C(F)(F)F)c1 [3d]	35.8	105	220	678	1461	2662	2579
1399	1688	1685	2006	4244	5509	–	CCC(C)(C)C(=O)C(=O)N1CCCC[C@H]1C(=O)O[C@H](CCc1ccc(OC)c(OC)c1)c1ccc(OCC(=O)O)cc1 [9-RS, (1R)-1-[4-(carboxymethoxy)phenyl]-3-(3,4-dimethoxy-phenyl)-1-propanyl (2S)-1-(3,3-dimethyl-1,2-dioxopentyl)-2-piperidinecarboxylate]	–	–	–	–	–	–	–
297	876	931	579	1366	1231	low or moderate binding affinity	CCC(C)(C)C(=O)C(=O)N1CCCC[C@H]1C(=O)O[C@@H](CCc1ccc(OC)c(OC)c1)c1ccc(OCC(=O)O)cc1 [9-SS]	–	–	–	–	–	–	–
–	–	–	–	–	–	–	NCCCNC(=O)c1ccccc1Nc1cccc(C(F)(F)F)c1 [3b]	31.9	878	1325	1694	2184	4629	4788
–	–	–	–	–	–	–	NCCCCNC(=O)c1ccccc1Nc1cccc(C(F)(F)F)c1 [3c]	36.2	32	74	3128	161	2968	3025
–	–	–	–	–	–	–	NCCNC(=O)c1ccccc1Nc1cccc(C(F)(F)F)c1 [3a, N-(2-amino-ethyl)-2-(3-trifluoromethyl-phenylamino)-benzamide]	50.4	323	816	1453	2072	3072	2986
–	–	–	–	–	–	–	Cc1ccc2c(c1)sc(-c1ccc(N(C)C)cc1)[n+]2C.[Cl-] [Thioflavin-T, reference compound]	–	940	570	731	86	2311	5140
762	1050	1218	1410	1478	1392	–	CCC(C)(C)C(=O)C(=O)N1CCCC[C@H]1C(=O)O[C@@H](CCc1ccc(OC)c(OC)c1)c1ccc(OCC(=O)O)cc1 [9-SR]	–	–	–	–	–	–	–
660	1158	769	371	1297	1138	low or moderate binding affinity	CCC(C)(C)C(=O)C(=O)N1CCCC[C@H]1C(=O)O[C@@H](CCc1ccc(OC)c(OC)c1)c1ccc(OCC(=O)O)cc1 [9-RR]	–	–	–	–	–	–	–
